From US4468403A, “Analgesic substituted piperidylidene-2-sulfon(cyan)amide derivatives” (priority 1982, dated 1984)
“Also recorded” adds a separate entry of the source. Where two headings read alike, the source gives them in different places.

Experiments:
[1] = Analgesic antagonist testing against analgesic agonists of the W-1 to W-19 and 0-1 to 0-3 series, e.g. W-3 (phenylquinone writhing); type: in vivo, male Swiss albino mice
Protocol: (§1) The percent change is calculated according to the following equation: % change=100- (no. of writhes in treated group/no. of writhes in control group)×100.

[2] = type: in vivo, male Swiss albino mice; conditions: for % Inhibn, control (single agent) in antagonist study: alone; for Analgesic action, inhibition action on phenylquinone writhing: dose giving 50 % inhibition / Analgesic action, inhibition action on phenylquinone writhing, % inhibition: subcutaneous; for Analgesic action, inhibition action on phenylquinone writhing: dose giving 50 % inhibition: 30 min before phenyl-p-benzoquinone, dose with 50 % inhibition; for Analgesic (agonist) activity, in words: phenylquinone writhing, mice
Protocol: as §1

[3] = Analgesic antagonist testing against morphine sulfate (phenylquinone writhing); type: in vivo, male Swiss albino mice
Protocol: as §1

[4] = at the dose listed for the substance under E1

C=CCN1CC[C@]23c4c5ccc(O)c4O[C@H]2C(=O)CC[C@@]3(O)[C@H]1C5 [Naloxone, reference compound]
Antagonist activities, % inhibition of writhing with antagonist + agonist ([1]; Expt. 5: Naloxone (1.0 mg/kg sc) before W-3 (5.0 mg/kg sc)): 45%
Block of agonist analgesic effect, in words ([1]; Naloxone (1.0 mg/kg sc) vs W-3 (5.0 mg/kg sc)): partial block; also recorded: partially blocks
Antagonist activity, in words ([1]; toward W-3, dose not given): acted as an antagonist toward W-3

O=S(=O)(N=C1CCCCN1CC1CC1)c1ccc(Cl)cc1 [Compound W-20, 1-Cyclopropylmethylpiperidylidene-2-(4-chlorophenyl)sulfonamide]
% Inhibn, control (single agent) in antagonist study ([2]; 0.5 mg/kg sc): 36%
% Inhibn, control (single agent) in antagonist study ([2]; 2.0 mg/kg sc): 46%
% Inhibn, control (single agent) in antagonist study ([2]; 10.0 mg/kg sc): 69%
Analgesic action, inhibition action on phenylquinone writhing: dose giving 50 % inhibition [2]: 2.3 mg/kg
Analgesic action, inhibition action on phenylquinone writhing, % inhibition [2, 4]: 50%
Antagonist activities, % inhibition of writhing with antagonist + agonist ([3]; Expt. 1: W-20 (2.0 mg/kg sc) 10 min before MS (0.2 mg/kg sc)): 55%
Antagonist activities, % inhibition of writhing with antagonist + agonist ([3]; Expt. 2: W-20 (10.0 mg/kg sc) 10 min before MS (0.2 mg/kg sc)): 66%
Block of agonist analgesic effect, in words ([3]; W-20 (2.0 mg/kg sc) vs MS (0.2 mg/kg sc)): near complete block
Block of agonist analgesic effect, in words ([3]; W-20 (10.0 mg/kg sc) vs MS (0.2 mg/kg sc)): complete block; also recorded: completely blocks
Antagonist activities, % inhibition of writhing with antagonist + agonist ([1]; Expt. 3: W-20 (0.5 mg/kg sc) 10 min before W-3 (2.0 mg/kg sc)): 53%
Antagonist activities, % inhibition of writhing with antagonist + agonist ([1]; Expt. 4: W-20 (2.0 mg/kg sc) 10 min before W-3 (2.0 mg/kg sc)): 49%
Block of agonist analgesic effect, in words ([1]; W-20 (0.5 mg/kg sc) vs W-3 (2.0 mg/kg sc)): partial block
Block of agonist analgesic effect, in words ([1]; W-20 (2.0 mg/kg sc) vs W-3 (2.0 mg/kg sc)): complete block; also recorded: completely blocks

CCCN1CCCCC1=NS(=O)(=O)c1ccc(N)cc1 [Compound W-27, 1-n-Propylpiperidylidene-2-(4-aminophenyl)sulfonamide]
Analgesic action, inhibition action on phenylquinone writhing, % inhibition ([2]; dose 2.0 mg/kg (Table 3)): 59%

O=S(=O)(N=C1CCCCN1CCc1ccccc1)c1cccnc1 [Compound W-17, 1-Phenylethylpiperidylidene-2-(3-pyridyl)sulfonamide]
Analgesic (agonist) activity, in words [2]: active analgesics, being comparable to morphine sulfate
Analgesic action, inhibition action on phenylquinone writhing, % inhibition ([2]; dose 0.20 mg/kg): 65%

CN1CCCCC1=NS(=O)(=O)c1ccc(Cl)cc1 [Compound W-3, 1-Methylpiperidylidene-2-(4-chlorophenyl)sulfonamide]
% Inhibn, control (single agent) in antagonist study ([2]; 2.0 mg/kg sc): 97%
% Inhibn, control (single agent) in antagonist study ([2]; 5.0 mg/kg sc): 100%
Analgesic (agonist) activity, in words [2]: active analgesics, being comparable to morphine sulfate
Analgesic action, inhibition action on phenylquinone writhing: dose giving 50 % inhibition [2]: 0.0038 mg/kg
Analgesic action, inhibition action on phenylquinone writhing, % inhibition [2, 4]: 50%

CCC(=O)O[C@](Cc1ccccc1)(c1ccccc1)[C@H](C)CN(C)C [Dextropropoxyphene (TM), reference compound]
Analgesic action, inhibition action on phenylquinone writhing: dose giving 50 % inhibition [2]: 56.0 mg/kg
Analgesic action, inhibition action on phenylquinone writhing, % inhibition [2, 4]: 50%

CC(C)CN1CCCCC1=NS(=O)(=O)c1ccc(Cl)cc1 [Compound W-29, 1-Isobutylpiperidylidene-2-(4-chlorophenyl)sulfonamide]
Analgesic action, inhibition action on phenylquinone writhing: dose giving 50 % inhibition [2]: 2.0 mg/kg
Analgesic action, inhibition action on phenylquinone writhing, % inhibition ([2]; dose 2.0 mg/kg (Table 3)): 50%

Nc1ccc(CCN2CCCCC2=NS(=O)(=O)c2ccc(Cl)cc2)cc1 [Compound W-19, 1-(4-Aminophenylethyl)piperidylidene-2-(4-chlorophenyl)sulfonamide]
Analgesic action, inhibition action on phenylquinone writhing, % inhibition [2, 4]: 50%

O=S(=O)(N=C1CCCCN1CC1CC1)c1cccnc1 [Compound W-22, 1-Cyclopropylmethylpiperidylidene-2-(3-pyridyl)sulfonamide]
Analgesic action, inhibition action on phenylquinone writhing: dose giving 50 % inhibition [2]: 2.0 mg/kg
Analgesic action, inhibition action on phenylquinone writhing, % inhibition ([2]; dose 2.0 mg/kg (Table 3)): 50%

CC(C)CN1CCCCC1=NS(=O)(=O)c1cccnc1 [Compound W-31, 1-Isobutylpiperidylidene-2-(3-pyridyl)sulfonamide]
Analgesic action, inhibition action on phenylquinone writhing, % inhibition ([2]; dose 2.0 mg/kg (Table 3)): 65%

CN1CCCCC1=NS(=O)(=O)c1cccc(N)c1 [Compound W-10, 1-Methylpiperidylidene-2-(3-aminophenyl)sulfonamide]
Analgesic (agonist) activity, in words [2]: active analgesics, being comparable to morphine sulfate
Analgesic action, inhibition action on phenylquinone writhing: dose giving 50 % inhibition [2]: 0.0017 mg/kg
Analgesic action, inhibition action on phenylquinone writhing, % inhibition [2, 4]: 50%
